The supplement of paper PMC10307832

Assays:
Assay in all cases: relative viability (nuclei count vs DMSO), 5 days (fraction); higher = more cells survive
Zebularine + Tozasertib = compound: O=c1ncccn1[C@@H]1O[C@H](CO)[C@@H](O)[C@H]1O [Zebularine] + Cc1cc(Nc2cc(N3CCN(C)CC3)nc(Sc3ccc(NC(=O)C4CC4)cc3)n2)n[nH]1 [Tozasertib] (partner 0.1 µM)
In short: (§1)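 Relative viability divides the nuclei count in treated wells by that in vehicle wells. Lung cancer cell lines were seeded in 1536-well plates, dosed by pin tool the next day, and fixed and stained after 5 days in one step with final 0.05% Triton X-100, 1% formaldehyde and 1 ug/ml Hoechst. Dosing was a single drug or a fixed anchor-drug dose plus five library-drug doses (not always all listed) in √10 steps, and values are medians of duplicate plates imaged at 4×.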

BI-D1870 + Olaparib = compound: CC(C)CCN1c2nc(Nc3cc(F)c(O)c(F)c3)ncc2N(C)C(=O)C1C [BI-D1870] + O=C(c1cc(Cc2n[nH]c(=O)c3ccccc23)ccc1F)N1CCN(C(=O)C2CC2)CC1 [Olaparib] (partner 8 µM)
In short: as §1

Zebularine + Decitabine = compound: O=c1ncccn1[C@@H]1O[C@H](CO)[C@@H](O)[C@H]1O [Zebularine] + Nc1ncn([C@H]2C[C@H](O)[C@@H](CO)O2)c(=O)n1 [Decitabine] (partner 2 µM)
In short: as §1

BI-D1870 + Lapatinib = compound: CC(C)CCN1c2nc(Nc3cc(F)c(O)c(F)c3)ncc2N(C)C(=O)C1C [BI-D1870] + CS(=O)(=O)CCNCc1ccc(-c2ccc3ncnc(Nc4ccc(OCc5cccc(F)c5)c(Cl)c4)c3c2)o1 [Lapatinib] (partner 2 µM)
In short: as §1

Cell Line | relative viability (Zebularine + Tozasertib; first compound 1 µM) | relative viability (Zebularine + Tozasertib; first compound 3.162 µM) | relative viability (Zebularine + Tozasertib; first compound 10 µM) | relative viability (Zebularine + Tozasertib; first compound 31.62 µM) | relative viability (Zebularine + Tozasertib; first compound 100 µM) | relative viability (BI-D1870 + Olaparib; first compound 0.04 µM) | relative viability (BI-D1870 + Olaparib; first compound 0.1265 µM) | relative viability (BI-D1870 + Olaparib; first compound 0.4 µM) | relative viability (BI-D1870 + Olaparib; first compound 1.265 µM) | relative viability (BI-D1870 + Olaparib; first compound 4 µM) | relative viability (Zebularine + Decitabine; first compound 1 µM) | relative viability (Zebularine + Decitabine; first compound 3.162 µM) | relative viability (Zebularine + Decitabine; first compound 10 µM) | relative viability (Zebularine + Decitabine; first compound 31.62 µM) | relative viability (Zebularine + Decitabine; first compound 100 µM) | relative viability (BI-D1870 + Lapatinib; first compound 0.04 µM) | relative viability (BI-D1870 + Lapatinib; first compound 0.1265 µM) | relative viability (BI-D1870 + Lapatinib; first compound 0.4 µM) | relative viability (BI-D1870 + Lapatinib; first compound 1.265 µM) | relative viability (BI-D1870 + Lapatinib; first compound 4 µM)
LU99A | 0.296 | 0.276 | 0.239 | 0.261 | 0.159 | 0.274 | 0.243 | 0.264 | 0.244 | 0.229 | 0.906 | 0.813 | 0.61 | 0.392 | 0.215 | 1.11 | 0.942 | 0.928 | 0.941 | 0.939
LXF-289 | 0.19 | 0.169 | 0.124 | 0.0978 | 0.116 | 1.1 | 1.04 | 1.06 | 1.08 | 0.612 | 0.362 | 0.331 | 0.382 | 0.345 | 0.24 | 0.927 | 0.831 | 0.881 | 0.87 | 0.788
NCI-H23 | 0.36 | 0.382 | 0.234 | 0.462 | 0.284 | 0.307 | 0.263 | 0.294 | 0.301 | 0.212 | 0.344 | 0.342 |  | 0.303 | 0.335 | 1.41 | 0.984 | 1.04 | 1.31 | 0.664
NCI-H322M | 0.494 | 0.486 | 0.372 | 0.47 | 0.465 | 0.736 | 0.75 | 0.713 | 0.735 | 0.624 | 0.712 | 0.636 | 0.614 | 0.696 | 0.675 | 0.605 | 0.535 | 0.598 | 0.529 | 0.559
NCI-H358 | 0.111 | 0.101 | 0.0883 | 0.108 | 0.0887 | 0.685 | 0.548 | 0.592 | 0.485 | 0.35 | 0.219 | 0.172 | 0.178 | 0.214 | 0.144 | 0.501 | 0.413 | 0.551 | 0.504 | 0.556
NCI-H460 | 0.61 | 0.499 | 0.529 | 0.193 | 0.0561 | 0.492 | 0.384 | 0.323 | 0.436 | 0.179 | 0.549 | 0.504 | 0.236 | 0.467 | 0.112 | 1.28 | 0.823 | 0.941 | 0.837 | 0.586
NCI-H520 | 0.43 | 0.561 | 0.353 | 0.269 | 0.25 | 0.336 | 0.355 | 0.295 | 0.246 | 0.162 | 0.552 | 0.49 | 0.399 | 0.299 | 0.233 | 1 | 0.714 | 0.846 | 0.619 | 0.704
NCI-H596 | 0.847 | 1.1 | 0.618 | 0.958 | 0.845 | 0.73 | 0.743 | 0.625 | 0.671 | 0.63 | 0.84 | 1.07 | 0.894 | 1.06 | 0.98 | 1.05 | 1.03 | 1.19 | 1.09 | 1.05
NCI-H647 | 0.284 | 0.353 | 0.152 | 0.144 | 0.265 | 0.747 | 0.447 | 0.579 | 0.496 | 0.359 | 0.391 | 0.369 | 0.187 | 0.144 | 0.14 | 1.26 | 0.927 | 1.02 | 1.03 | 0.671
NCI-H650 | 0.756 | 0.656 | 0.524 | 0.346 | 0.238 | 0.443 | 0.375 | 0.366 | 0.369 | 0.315 | 0.28 | 0.285 | 0.31 | 0.298 | 0.297 | 1.04 | 0.726 | 0.836 | 0.975 | 0.879
NCI-H661 | 0.338 | 0.346 | 0.381 | 0.361 | 0.396 | 0.781 | 0.746 | 0.738 | 0.737 | 0.58 | 0.564 | 0.551 | 0.48 | 0.608 | 0.505 | 0.56 | 0.406 | 0.45 | 0.442 | 0.499
NCI-H727 | 0.639 | 0.645 | 0.602 | 0.623 | 0.386 | 0.704 | 0.563 | 0.675 | 0.649 | 0.779 | 0.855 | 0.903 | 0.867 | 0.84 | 0.826 | 1.15 | 0.819 | 0.786 | 1.18 | 0.673
NCI-H838 | 0.251 | 0.304 | 0.239 | 0.216 | 0.163 | 0.792 | 0.719 | 0.74 | 0.855 | 0.663 | 0.504 | 0.49 | 0.489 | 0.42 | 0.289 | 1.13 | 0.942 | 1.1 | 1.24 | 1.02
NCI-H1355 | 0.56 | 0.516 | 0.484 | 0.328 | 0.34 | 0.898 | 0.698 | 0.713 | 0.74 | 0.57 | 0.34 | 0.329 | 0.334 | 0.314 | 0.28 | 0.955 | 0.959 | 0.907 | 1.21 | 0.809
NCI-H1395 | 0.72 | 0.707 | 0.647 | 0.501 | 0.479 | 0.448 | 0.436 | 0.429 | 0.489 | 0.406 | 0.678 | 0.755 | 0.82 | 0.709 | 0.623 | 1.13 | 0.895 | 0.989 | 1.13 | 0.79
NCI-H1437 | 0.44 | 0.381 | 0.254 | 0.397 | 0.304 | 0.617 | 0.577 | 0.578 | 0.578 | 0.445 | 0.617 | 0.639 | 0.464 | 0.686 | 0.528 | 0.899 | 0.686 | 0.76 | 0.802 | 0.653
